Entries after “also recorded” stand apart in the source; their conditions may differ.
Key:
ALPK1 [1] = target: T1, ALPK1 (Homo sapiens, UniProt Q96QP1); test: IL-8 secretion by HEK293 cells (IL-8 ELISA) as indication of ALPK1 activation; format: cell-based; conditions: HEK293 cells treated 4 hours, FIG. 6, Table 2A
T1 construct: endogenous in cells; host or cells: HEK293 (A1); HEK293 stably expressing an NF-kB-alkaline phosphatase reporter (A2)
Method: HEK293 cells were treated with H1b-ADP derivatives (A1, A2, A3, and A4) or with Compound 28 for 4 hours followed by analysis of IL-8 secretion using an IL-8 enzyme linked immunoassay (ELISA). IL-8 secretion is an indication of ALPK1 activation. The EC50 of each compound was determined using GraphPad Prism.

HBV = test: HBV-AAV mouse model: HBV DNA qPCR, serum HBsAg and HBeAg ELISA; format: in vivo; conditions: 0.1 mg/kg intraperitoneal on days 28 and 31, serum at day 35, versus PBS control
Method: Administration of Compound 28 (0.1 mg/kg, twice weekly “BIW”) led to downregulation of HBV DNA expression and a decrease in serum levels of HBsAg, and HBeAg in the HBV-AAV mouse model. At day 1, male C57BL/6 mice were intravenously injected with AAV8-1.3HBV (1×10^11 v/g). After days 28 and 31, each mouse was then intraperitoneally injected with 0.1 mg/kg compound 28 or PBS control. At day 35, mouse serum was collected for HBV DNA qPCR analysis, HBsAg and HBeAg serum analysis by ELISA.

ALPK1 [2] = target: T1, ALPK1; test: NF-kB promoter driven alkaline phosphatase reporter in HEK293 cells (pNPP assay); format: cell-based; conditions: HEK293-NFkB-AP reporter cells treated 7 hours
Method: NF-kB activation was assayed using HEK293 cells stably expressing an NF-kB reporter construct comprising an NF-kB promoter driving expression of alkaline phosphatase (AP). In this system, activation of NF-kB promoter activity drives the expression of AP which is detected using a chromogenic substrate, para-nitrophenyl phosphate (pNPP).
To assess the ALPK1 agonist activity of test compounds, the HEK293 cells were seeded in 96-well plates and allowed to attach overnight. Cells were then exposed to graded concentrations of compounds A1, A2, A3, A4, A18, A26, A27, A28, and A30. Compound 28 was included as a reference. Following treatment, cell culture supernatants were collected and analyzed for alkaline phosphatase activity using the pNPP assay. The results are shown in FIGS. 7A-7B and Table 2B-C below. The EC50 for each compound was determined using GraphPad Prism.

HBsAg, adw = test: Immunization of mice with HBsAg, adw with or without compound; specific total IgG serum titers by ELISA; format: in vivo, mouse
Method: Eight-week-old C57BL/6J mice (females) were intradermally (I.D.) immunized at day 0 with HBsAg, adw (1 mg/dose), or HBsAg, adw at 1 mg/dose combined with compound 28 (1 nmol/dose). Mice were boosted with a second immunization at day 14 and the sera collected at day 35. HBsAg, adw-specific total IgG serum titers (OD450) were determined by ELISA. Anti-HBsAg, adw IgG titers were more than 2× higher when HBsAg, adw was combined with 1 nmol/dose of compound 28 than when HBsAg, adw was injected alone (FIG. 3).

ALPK1 [3] = target: T2, ALPK1 (Mus musculus, UniProt Q9CXB8); test: Serum RANTES (CCL5) levels after subcutaneous injection as measure of ALPK1 activation in vivo; conditions: 10 nmole subcutaneous, serum at 24 hours or 48 hours
T2 construct: C57/B6 mice (n=3 mice/group) were injected subcutaneously; endogenous in cells; host or cells: C57/B6 mice, whole animal
T2 sequence (Q9CXB8 1-1231): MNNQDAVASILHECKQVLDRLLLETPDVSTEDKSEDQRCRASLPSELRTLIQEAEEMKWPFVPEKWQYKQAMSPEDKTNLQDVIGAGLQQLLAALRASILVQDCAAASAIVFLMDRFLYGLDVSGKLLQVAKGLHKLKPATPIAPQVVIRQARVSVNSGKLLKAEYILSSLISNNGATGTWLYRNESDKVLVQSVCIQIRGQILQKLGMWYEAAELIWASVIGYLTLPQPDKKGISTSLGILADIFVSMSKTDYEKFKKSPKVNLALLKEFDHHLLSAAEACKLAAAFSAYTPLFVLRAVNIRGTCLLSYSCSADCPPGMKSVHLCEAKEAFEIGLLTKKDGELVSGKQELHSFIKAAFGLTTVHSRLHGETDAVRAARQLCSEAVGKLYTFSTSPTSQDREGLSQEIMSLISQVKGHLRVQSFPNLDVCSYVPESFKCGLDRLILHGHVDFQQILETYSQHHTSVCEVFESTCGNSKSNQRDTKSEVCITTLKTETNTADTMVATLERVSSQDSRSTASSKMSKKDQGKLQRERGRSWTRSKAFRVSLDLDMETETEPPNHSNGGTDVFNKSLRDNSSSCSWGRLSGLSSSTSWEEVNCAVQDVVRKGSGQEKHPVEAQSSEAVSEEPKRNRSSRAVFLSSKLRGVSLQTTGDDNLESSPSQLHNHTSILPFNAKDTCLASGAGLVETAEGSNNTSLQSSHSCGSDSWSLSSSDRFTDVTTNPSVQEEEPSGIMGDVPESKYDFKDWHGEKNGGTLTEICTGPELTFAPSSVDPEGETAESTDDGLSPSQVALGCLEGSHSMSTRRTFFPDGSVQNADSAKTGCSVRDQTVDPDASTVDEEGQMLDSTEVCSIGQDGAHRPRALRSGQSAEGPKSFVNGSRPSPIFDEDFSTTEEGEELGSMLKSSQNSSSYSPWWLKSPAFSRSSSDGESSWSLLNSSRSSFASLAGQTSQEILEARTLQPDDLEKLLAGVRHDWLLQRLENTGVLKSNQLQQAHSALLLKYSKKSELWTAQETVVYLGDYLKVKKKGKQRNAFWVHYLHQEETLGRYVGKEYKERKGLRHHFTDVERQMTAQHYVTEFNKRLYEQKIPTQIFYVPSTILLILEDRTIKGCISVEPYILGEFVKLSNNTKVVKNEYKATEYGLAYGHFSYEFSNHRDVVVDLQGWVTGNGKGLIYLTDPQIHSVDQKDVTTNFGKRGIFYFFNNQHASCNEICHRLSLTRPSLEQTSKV
Method: The ability of Compounds 15 and 28 to stimulate ALPK1 activation in vivo was tested by monitoring serum levels of the chemokine RANTES (CCL5), which is elevated upon activation of ALPK1. Briefly, C57/B6 mice (n=3 mice/group) were injected subcutaneously with PBS (negative control) or 10 nmole of Compound 15 or Compound 28. Serum was collected at 24 hours or 48 hours post injection.

[4] = system: eosinophils, dendritic cells, neutrophils; test: Porcine pancreas elastase (PPE) induced immune cells in bronchoalveolar lavage, flow cytometry; format: in vivo, mouse; conditions: 30 μg/dose PPE, BAL day 2
Method: Eight-week-old male C57BL/6 mice were grouped (N=8/group) and were intraperitoneally (I.P.) injected with compound 28 at 0, 4, or 20 nmol/dose on days −1, 0, and 1. In addition, mice were intratracheally (I.Tr.) administrated with 0 or 30 μg/dose of porcine pancreas elastase (PPE) dissolved in 50 μL saline on day 0. Mice were sacrificed on day 2 and the immune cells were collected by bronchoalveolar lavage (BAL). Cells were then subjected to fluorophore-conjugated antibody staining and analyzed by flow cytometry. Data were processed with a FlowJo […] (Treestar). Immune cells were gated as singlets>live cells>CD11c^highSiglecF^lowMHCII^high (dendritic cells), CD11c^lowCD11b^highLy-6G^high (neutrophils), and CD11c^lowCD11b^highLy-6G^lowSiglecF^high (eosinophils).

[5] = 4 nmol/dose intraperitoneal days -1, 0, 1
[6] = 4 nmol/dose intraperitoneal days -1, 0, 1, listed as compound 28
[7] = 20 nmol/dose intraperitoneal days -1, 0, 1
[8] = 20 nmol/dose intraperitoneal days -1, 0, 1, listed as compound 28

T1 sequence (Q96QP1 whole entry): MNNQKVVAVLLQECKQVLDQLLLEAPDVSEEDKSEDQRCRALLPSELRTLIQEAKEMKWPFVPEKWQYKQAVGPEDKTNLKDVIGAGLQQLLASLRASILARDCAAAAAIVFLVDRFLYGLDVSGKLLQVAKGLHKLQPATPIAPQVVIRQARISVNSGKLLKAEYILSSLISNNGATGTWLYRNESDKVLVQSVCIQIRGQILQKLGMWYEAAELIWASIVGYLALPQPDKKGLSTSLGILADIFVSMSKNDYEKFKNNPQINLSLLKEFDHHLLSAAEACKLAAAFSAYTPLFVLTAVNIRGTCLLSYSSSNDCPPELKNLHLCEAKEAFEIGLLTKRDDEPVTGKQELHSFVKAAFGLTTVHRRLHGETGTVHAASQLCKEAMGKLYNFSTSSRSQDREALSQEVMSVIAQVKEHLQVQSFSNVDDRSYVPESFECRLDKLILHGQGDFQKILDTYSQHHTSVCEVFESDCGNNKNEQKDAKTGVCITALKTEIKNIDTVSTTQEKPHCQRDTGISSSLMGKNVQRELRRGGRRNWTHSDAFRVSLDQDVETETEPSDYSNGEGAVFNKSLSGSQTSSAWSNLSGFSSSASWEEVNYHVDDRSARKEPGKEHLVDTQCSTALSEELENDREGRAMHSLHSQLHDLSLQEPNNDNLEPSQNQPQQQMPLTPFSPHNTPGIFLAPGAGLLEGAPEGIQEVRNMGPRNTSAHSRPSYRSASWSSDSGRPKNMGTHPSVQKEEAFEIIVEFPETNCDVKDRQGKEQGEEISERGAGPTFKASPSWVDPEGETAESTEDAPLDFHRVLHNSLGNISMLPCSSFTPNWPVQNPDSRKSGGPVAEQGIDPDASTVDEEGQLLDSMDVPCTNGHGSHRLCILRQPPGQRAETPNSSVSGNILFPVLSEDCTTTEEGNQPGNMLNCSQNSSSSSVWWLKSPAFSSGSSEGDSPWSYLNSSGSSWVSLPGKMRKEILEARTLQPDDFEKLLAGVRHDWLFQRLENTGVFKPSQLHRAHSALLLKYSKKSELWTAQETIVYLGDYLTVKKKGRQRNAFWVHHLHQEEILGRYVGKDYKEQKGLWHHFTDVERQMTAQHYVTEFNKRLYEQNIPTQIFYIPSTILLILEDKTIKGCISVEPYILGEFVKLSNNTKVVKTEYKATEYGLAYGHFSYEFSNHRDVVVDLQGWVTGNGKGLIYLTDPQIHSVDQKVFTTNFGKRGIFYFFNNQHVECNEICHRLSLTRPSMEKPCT

## CC(=O)OC[C@H](F)C1O[C@@H](OP(=O)(O)OP(O)(=S)OC[C@H]2O[C@@H](n3cnc4c(N)ncnc43)C(O)C2O)C(OC(C)=O)C(OC(C)=O)[C@@H]1OC(C)=O (stereo partly drawn) [Compound 28]
ALPK1 [1]
  EC50: 45 nM
HBV
  HBV DNA expression: marked decrease; also recorded: down-regulation
  serum levels of HBeAg: marked decrease; also recorded: lower levels
  serum levels of HBsAg: marked decrease; also recorded: lower levels
ALPK1 [2]; FIG. 7A, Table 2B
  EC50: 45 nM
ALPK1 [2]; FIG. 7B, Table 2C
  EC50: 67 nM
HBsAg, adw; 1 nmol with HBsAg, adw versus HBsAg, adw alone
  IgG response against HBsAg, adw (in words): increased IgG response
HBsAg, adw; 1 nmol/dose intradermal, days 0 and 14, sera day 35
  Anti-HBsAg, adw IgG titers, HBsAg, adw combined with compound relative to HBsAg, adw alone: more than 2 ×
ALPK1 [3]
  duration of immune activation (serum RANTES), compared to Compound 15: longer duration of immune activation
[4]; [5]
  production of dendritic cells after PPE administration: decrease
  production of eosinophils after PPE administration: decrease
  production of neutrophils after PPE administration: decrease
[4]; [6]
  production of dendritic cells after PPE administration: significantly suppressed
  production of eosinophils after PPE administration: significantly suppressed
  production of neutrophils after PPE administration: only at the 20 nmol/dose level
[4]; [7]
  production of dendritic cells after PPE administration: decrease
  production of eosinophils after PPE administration: decrease
  production of neutrophils after PPE administration: decrease
[4]; [8]
  production of dendritic cells after PPE administration: significantly suppressed
  production of eosinophils after PPE administration: significantly suppressed
  production of neutrophils after PPE administration: suppressed

— patent US20220177510A1, “DERIVATIVES OF GYLCERO-MANNO-HEPTOSE ADP FOR USE IN MODULATING IMMUNE RESPONSE” (priority 2019, published 2022)
